Our source for the AC50 values is patent US20230365592A1 (Agios Pharmaceuticals, Inc., priority 2022, published 2023).

A value given as a limit tells only on which side of the number the result lay.

The first test has as its target T1, human PAH with the R408W mutation (Homo sapiens, UniProt P00439, R408W).
T1 construct: expressed in transfected cells
T1 sequence (P00439 1-452 R408W): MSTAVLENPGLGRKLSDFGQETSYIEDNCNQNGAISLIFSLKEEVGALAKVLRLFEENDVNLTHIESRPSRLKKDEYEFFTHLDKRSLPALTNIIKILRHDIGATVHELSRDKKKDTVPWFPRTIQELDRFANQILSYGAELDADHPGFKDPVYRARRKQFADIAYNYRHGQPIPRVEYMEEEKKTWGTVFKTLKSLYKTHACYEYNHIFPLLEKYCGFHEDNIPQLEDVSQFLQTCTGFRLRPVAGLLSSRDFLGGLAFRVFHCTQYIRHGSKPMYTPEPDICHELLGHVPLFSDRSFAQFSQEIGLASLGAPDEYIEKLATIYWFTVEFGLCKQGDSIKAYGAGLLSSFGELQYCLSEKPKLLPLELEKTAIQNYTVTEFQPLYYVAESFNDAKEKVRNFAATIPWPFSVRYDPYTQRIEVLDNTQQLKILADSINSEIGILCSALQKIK
As to the kind of experiment: Cell Based Phenylalanine Flux Assay.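 Also: after compound treatment, cells received sepiapterin plus isotope-labelled Phenylalanine for 4 hours, then labelled Tyrosine in the medium was quantified, 10-point 2-fold dilution series run in duplicate.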 Particulars: A375 cells expressing R408W PAH; 24 hrs with compound, then 20 µM sepiapterin and 800 µM 13C9,15N-Phenylalanine for 4 hours; 13C-Tyrosine by LC-MS; average where tested multiple times; read-out: AC50.
For the compound `O=C(c1ocnc1C(F)F)N1CCc2[nH]cnc2C1c1cc2c(Cl)cccn2n1` (centres unmarked), the concentration at half-maximal activity (AC50) lay in the range of 1000 to 5000 nM.

With `O=C(c1cnc(-c2ncccn2)o1)N1CCc2[nH]cnc2C1c1cc2c(C(F)F)cccn2n1` (centres unmarked), the concentration at half-maximal activity (AC50) was > 5000 nM.

Consider `c1cnnc(-c2nnc(N3CCc4[nH]cnc4C3c3cc4ccccn4n3)o2)c1` (centres unmarked), for which the AC50 lay in the range of 1000 to 5000 nM.

Turning to `Cc1c(C2c3nc[nH]c3CCN2C(=O)c2nnc(C3CC3)o2)nn2ccccc12` (centres unmarked), the AC50 was 1000 to 5000 nM.

As for `Cc1ccn2nc(C3c4nc[nH]c4CCN3C(=O)c3nnc(-c4cnn(C)c4)o3)cc2c1` (centres unmarked), the concentration at half-maximal activity (AC50) was in the range of 1000 to 5000 nM.

Turning to `N#Cc1ncoc1C(=O)N1CCc2[nH]cnc2[C@H]1c1nn2ccccc2c1Br` (single isomer, unassigned), the AC50 is 1000 to 5000 nM.

As for `Cn1ccc(-c2nnc(C(=O)N3CCc4[nH]cnc4C3c3cc4cc(C(F)(F)F)ccn4n3)o2)n1` (centres unmarked), the AC50 is > 5000 nM.

Still in this test, the particulars now being: A375 cells expressing human PAH R408W; 24 hrs compound incubation; 13C-Tyrosine by LC-MS; average where tested multiple times; read-out: AC50.
In the case of `Cc1cccn2nc([C@@H]3c4nc[nH]c4CCN3C(=O)c3cnc(-c4cnn(C)c4C)o3)cc12` [Example 1962, (S)-(2-(1,5-dimethyl-1H-pyrazol-4-yl)oxazol-5-yl)(4-(4-methylpyrazolo[1,5-a]pyridin-2-yl)-1,4,6,7-tetrahydro-5H-imidazo[4,5-c]pyridin-5-yl)methanone], the concentration at half-maximal activity (AC50) was 500 to 1000 nM.

In the case of `CC(C)(F)c1ncc(C(=O)N2CCc3[nH]cnc3[C@H]2c2cc3ccccn3n2)o1` [Example 1957, (S)-(2-(2-fluoropropan-2-yl)oxazol-5-yl)(4-(pyrazolo[1,5-a]pyridin-2-yl)-1,4,6,7-tetrahydro-5H-imidazo[4,5-c]pyridin-5-yl)methanone], the concentration at half-maximal activity (AC50) lay within 500 to 1000 nM.

Take `Cc1cccn2nc([C@@H]3c4nc[nH]c4CCN3c3nnc(C(C)(F)F)o3)cc12` [Example 2193, (S)-2-(1,1-difluoroethyl)-5-(4-(4-methylpyrazolo[1,5-a]pyridin-2-yl)-1,4,6,7-tetrahydro-5H-imidazo[4,5-c]pyridin-5-yl)-1,3,4-oxadiazole]: the concentration at half-maximal activity (AC50) is < 500 nM.

Staying with this test, now noted: A375 cells expressing human R408W PAH; 24 hrs compound incubation; 13C-Tyrosine by LC-MS; average where tested multiple times; read-out: AC50.
With `O=C(c1nnc(-c2ccn(C(F)F)n2)o1)N1CCc2[nH]cnc2[C@H]1c1cc2ccccn2n1` [Example 666, (S)-(5-(1-(difluoromethyl)-1H-pyrazol-3-yl)-1,3,4-oxadiazol-2-yl)(4-(pyrazolo[1,5-a]pyridin-2-yl)-6,7-dihydro-1H-imidazo[4,5-c]pyridin-5(4H)-yl)methanone], the AC50 lay within 500 to 1000 nM.

As to `FC(F)c1cccn2nc([C@@H]3c4nc[nH]c4CCN3c3ncccn3)cc12` [Example 1762, (S)-4-(4-(difluoromethyl)pyrazolo[1,5-a]pyridin-2-yl)-5-(pyrimidin-2-yl)-4,5,6,7-tetrahydro-1H-imidazo[4,5-c]pyridine], the AC50 is < 500 nM.

`Cc1cccc2cc([C@@H]3c4nc[nH]c4CCN3C(=O)c3nc(Cl)nn3C)nn12` [Example 1086, (S)-(3-chloro-1-methyl-1H-1,2,4-triazol-5-yl)(4-(7-methylpyrazolo[1,5-a]pyridin-2-yl)-6,7-dihydro-1H-imidazo[4,5-c]pyridin-5(4H)-yl)methanone]: the AC50 is < 500 nM.

As for `Cc1cccn2nc([C@H]3c4nc[nH]c4CCN3C(=O)c3nnc(C4CCC4)o3)cc12` [Example 1557, (R)-(5-cyclobutyl-1,3,4-oxadiazol-2-yl)(4-(4-methylpyrazolo[1,5-a]pyridin-2-yl)-6,7-dihydro-1H-imidazo[4,5-c]pyridin-5(4H)-yl)methanone], the concentration at half-maximal activity (AC50) fell in the range of 1000 to 5000 nM.

Turning to `O=C(c1nnc(-c2cccnc2)o1)N1CCc2[nH]cnc2[C@@H]1c1cc2cccc(F)n2n1` [Example 1523, (R)-(4-(7-fluoropyrazolo[1,5-a]pyridin-2-yl)-6,7-dihydro-1H-imidazo[4,5-c]pyridin-5(4H)-yl)(5-(pyridin-3-yl)-1,3,4-oxadiazol-2-yl)methanone], the AC50 was > 5000 nM.

Take `O=C(c1ocnc1C(F)F)N1CCc2[nH]cnc2[C@H]1c1cc2ccc(F)cn2n1` [Example 1068, (S)-(4-(difluoromethyl)oxazol-5-yl)(4-(6-fluoropyrazolo[1,5-a]pyridin-2-yl)-6,7-dihydro-1H-imidazo[4,5-c]pyridin-5(4H)-yl)methanone]: the half-maximal activity concentration (AC50) was < 500 nM.

With `Cc1c(-c2nnc(C(=O)N3CCc4[nH]cnc4[C@H]3c3cc4c(C(F)(F)F)cccn4n3)o2)cnn1C` [Example 1204, (S)-(5-(1,5-dimethyl-1H-pyrazol-4-yl)-1,3,4-oxadiazol-2-yl)(4-(4-(trifluoromethyl)pyrazolo[1,5-a]pyridin-2-yl)-6,7-dihydro-1H-imidazo[4,5-c]pyridin-5(4H)-yl)methanone], the half-maximal activity concentration (AC50) was < 500 nM.

`O=C(c1nnc(-c2ccccn2)o1)N1CCc2[nH]cnc2[C@H]1c1cc2cccc(C(F)(F)F)n2n1` [Example 1028, (S)-(5-(pyridin-2-yl)-1,3,4-oxadiazol-2-yl)(4-(7-(trifluoromethyl)pyrazolo[1,5-a]pyridin-2-yl)-6,7-dihydro-1H-imidazo[4,5-c]pyridin-5(4H)-yl)methanone]: the AC50 was < 500 nM.

Consider `O=C(c1ccnn1C(F)F)N1CCc2[nH]cnc2[C@H]1c1cc2cc(F)ccn2n1` [Example 1092, (S)-(1-(difluoromethyl)-1H-pyrazol-5-yl)(4-(5-fluoropyrazolo[1,5-a]pyridin-2-yl)-6,7-dihydro-1H-imidazo[4,5-c]pyridin-5(4H)-yl)methanone], for which the AC50 was in the range of 500 to 1000 nM.

Turning to `O=C(c1oc(C2(O)CC2)nc1C(F)F)N1CCc2[nH]cnc2[C@H]1c1cc2cccc(C(F)(F)F)n2n1` [Example 1268, (S)-(4-(difluoromethyl)-2-(1-hydroxycyclopropyl)oxazol-5-yl)(4-(7-(trifluoromethyl)pyrazolo[1,5-a]pyridin-2-yl)-6,7-dihydro-1H-imidazo[4,5-c]pyridin-5(4H)-yl)methanone], the AC50 is < 500 nM.

In the case of `FC(F)c1cccc2cc([C@@H]3c4nc[nH]c4CCN3c3nnc(-c4ccccn4)o3)nn12` [Example 1626, (S)-2-(4-(7-(difluoromethyl)pyrazolo[1,5-a]pyridin-2-yl)-6,7-dihydro-1H-imidazo[4,5-c]pyridin-5(4H)-yl)-5-(pyridin-2-yl)-1,3,4-oxadiazole], the AC50 lay in the range of 500 to 1000 nM.

In the case of `O=C(c1nnc(-c2ccncc2)o1)N1CCc2[nH]cnc2[C@@H]1c1cc2c(F)cccn2n1` [Example 831, (R)-(4-(4-fluoropyrazolo[1,5-a]pyridin-2-yl)-6,7-dihydro-1H-imidazo[4,5-c]pyridin-5(4H)-yl)(5-(pyridin-4-yl)-1,3,4-oxadiazol-2-yl)methanone], the AC50 lay within 1000 to 5000 nM.

With `O=C(c1nnc(-c2cnn(C(F)F)c2)o1)N1CCc2[nH]cnc2[C@H]1c1cc2c(F)cccn2n1` [Example 796, (S)-(5-(1-(difluoromethyl)-1H-pyrazol-4-yl)-1,3,4-oxadiazol-2-yl)(4-(4-fluoropyrazolo[1,5-a]pyridin-2-yl)-6,7-dihydro-1H-imidazo[4,5-c]pyridin-5(4H)-yl)methanone], the concentration at half-maximal activity (AC50) was < 500 nM.

In the case of `O=C(c1nnc(-c2ncccc2F)o1)N1CCc2[nH]cnc2[C@H]1c1cc2c(C(F)F)cccn2n1` [Example 1426, (S)-(4-(4-(difluoromethyl)pyrazolo[1,5-a]pyridin-2-yl)-6,7-dihydro-1H-imidazo[4,5-c]pyridin-5(4H)-yl)(5-(3-fluoropyridin-2-yl)-1,3,4-oxadiazol-2-yl)methanone], the half-maximal activity concentration (AC50) was < 500 nM.

For `O=C(c1cn(-c2ccccn2)nc1Cl)N1CCc2[nH]cnc2[C@H]1c1cc2ccccn2n1` [Example 674, (S)-(3-chloro-1-(pyridin-2-yl)-1H-pyrazol-4-yl)(4-(pyrazolo[1,5-a]pyridin-2-yl)-6,7-dihydro-1H-imidazo[4,5-c]pyridin-5(4H)-yl)methanone], the half-maximal activity concentration (AC50) lay in the range of 1000 to 5000 nM.

As for `COc1cccn2nc([C@@H]3c4nc[nH]c4CCN3C(=O)c3nnc(C4CC4)o3)cc12` [Example 1168, (S)-(5-cyclopropyl-1,3,4-oxadiazol-2-yl)(4-(4-methoxypyrazolo[1,5-a]pyridin-2-yl)-6,7-dihydro-1H-imidazo[4,5-c]pyridin-5(4H)-yl)methanone], the half-maximal activity concentration (AC50) lay in the range of 500 to 1000 nM.

On to `Cn1cc(-c2nnc(C(=O)N3CCc4[nH]cnc4[C@H]3c3cc4ccccn4n3)o2)cn1` [Example 626, (S)-(5-(1-methyl-1H-pyrazol-4-yl)-1,3,4-oxadiazol-2-yl)(4-(pyrazolo[1,5-a]pyridin-2-yl)-6,7-dihydro-1H-imidazo[4,5-c]pyridin-5(4H)-yl)methanone], for which the AC50 lay in the range of 1000 to 5000 nM.

As for `Cc1nnc(C(=O)N2CCc3[nH]cnc3[C@H]2c2cc3c(C(F)F)cccn3n2)o1` [Example 1283, (S)-(4-(4-(difluoromethyl)pyrazolo[1,5-a]pyridin-2-yl)-6,7-dihydro-1H-imidazo[4,5-c]pyridin-5(4H)-yl)(5-methyl-1,3,4-oxadiazol-2-yl)methanone], the AC50 is 500 to 1000 nM.

Consider `Cc1cccn2nc([C@H]3c4nc[nH]c4CCN3C(=O)c3nnc(-c4cnn(C(F)F)c4)o3)cc12` [Example 821, (R)-(5-(1-(difluoromethyl)-1H-pyrazol-4-yl)-1,3,4-oxadiazol-2-yl)(4-(4-methylpyrazolo[1,5-a]pyridin-2-yl)-6,7-dihydro-1H-imidazo[4,5-c]pyridin-5(4H)-yl)methanone], for which the AC50 was > 5000 nM.

One may read the AC50 as the concentration giving half of the maximal activity seen.
